Results on eight compounds are retold here after publication PMC9674596, “Origin of acetylcholine antagonism in ELIC, a bacterial pentameric ligand-gated ion channel” (Communications Biology, 2022).

“Also recorded” adds a separate entry of the source.

One assay concerns the target T1, ELIC A75D/F133W (Dickeya chrysanthemi, UniProt P0C7B7, A75D/F133W/INS163G).
T1 construct: expressed in transfected cells; host or cells: Xenopus laevis oocytes injected with cRNA; DNA construct synthesised by Twist Bioscience
In words: Two-electrode voltage clamp, A75D/F133W double mutant ELIC expressed in Xenopus laevis oocytes. It counts as cell-based, Erwinia chrysanthemi. As to conditions: for Response when applied by themselves: 50 mM applied for 40 s without cysteamine; for Potentiation of the cysteamine response on co-application: 50 mM co-applied in the middle of a cysteamine pulse at EC50 (6.9 mM); for Activation by amine (whole-cell response): 25 mM amine; for Activation by amine (whole-cell response) / Effect of co-applied ligand on cysteamine-activated current: cysteamine at its EC50; for Effect of co-applied ligand on cysteamine-activated current: 25 mM ligand, 40 s pulse. The protocol:
(§1) Stage V-VI Xenopus laevis oocytes were isolated[72] and deflocculated enzymatically in ND96 buffer without Ca^2+ (96 mM NaCl, 2 mM KCl, 1 mM MgCl2, 2 mM pyruvate, 5 mM HEPES, pH 7.4), but supplemented with 1 mg/mL collagenase B and 1 mg/mL trypsin inhibitor, for 2 h at room temperature under constant stirring. The deflocculation buffer was then gradually removed by washing the oocytes in ND96 buffer (96 mM NaCl, 2 mM KCl, 1 mM MgCl2, 1 mM CaCl2, 2 mM pyruvate, 5 mM HEPES, pH 7.4) for several iterations. The oocytes were then allowed to stir for an additional hour at room temperature under constant stirring with the buffer being periodically replaced until clear. To obtain optimal receptor expression, individually selected and healthy oocytes were injected with 0.2 ng cRNA for wild-type ELIC and 5 ng cRNA for mutants. Subsequently, oocytes were incubated for one day at 16 °C in ND96^+ buffer (96 mM NaCl, 2 mM KCl, 1 mM MgCl2, 1 mM CaCl2, 2 mM pyruvate, and 5 mM HEPES at pH 7.6). After expression, injected oocytes were placed in a RC-1Z oocyte chamber (Harvard Apparatus; Hamden, CT) containing buffer (pH 7.4) composed of 150 mM NaCl, 0.5 mM BaCl2, 10 mM HEPES, and 1 mM dithiothreitol or 1 µM atropine if cysteamine, or ACh, was used in the experiment, respectively. The presence of the reducing agent, dithiothreitol, ensures that the sulfhydryl group of cysteamine remains reduced.
(§2) Once in the oocyte chamber, whole-cell currents were recorded using a two-electrode voltage-clamp apparatus (OC-725C oocyte clamp; Harvard Apparatus), with a buffer flow rate of 5–10 mL min^−1. Currents in response to various additions of cysteamine and/or ACh, were measured with the transmembrane voltage clamped at −60 mV. Dose response curves for each wild-type and mutant ELIC were acquired from at least five oocytes in two different batches.
(§3) For identifying the half maximal effective concentration (EC50) and apparent Hill coefficient (nH) of cysteamine, dose response curves were created by taking the magnitude of each cysteamine-activated peak current (I) and normalizing this value to the maximal peak current in the presence of excess agonist (Imax). The log (base 10) cysteamine concentration in molar was then plotted on the x-axis against the fractional response (I/Imax) on the y-axis. The data was fitted using nonlinear regression with a variable slope sigmoidal dose response (Eq. 1, below) in GraphPad Prism (v.8.0.0).1 y=1/1+10^nH^LogEC50−X
(§4) Individual EC50 and Hill coefficients were averaged for each oocyte to derive a mean ± standard deviation. For identifying a half maximal inhibitory concentration (IC50) and Hill coefficient of ACh, a concentration of cysteamine corresponding to its EC50 was used in the presence of increasing concentrations of ACh. Peak currents elicited from cysteamine with ACh (I) were normalized to the initial cysteamine peak current in the absence of ACh (Io). The log (base 10) ACh concentration was then plotted on the x-axis against the fractional response (I/Io) on the y-axis. Subsequent steps were the same as above for deriving a cysteamine EC50 and Hill coefficient. The individual IC50 and Hill coefficients were averaged for each oocyte to derive a mean ± one standard deviation. Lastly, to identify four normalized response values, cysteamine at the 10% maximal effective concentration (EC10), 20% maximal effective concentration (EC20), EC50 and 90% maximal effective concentration (EC90), was applied in the presence and absence of 25 mM ACh. The cysteamine-activated peak current with 25 mM ACh, was normalized to the cysteamine-activated peak current without ACh.
Background: Two-electrode voltage clamp is typically applied to oocytes expressing channels or transporters.

Another assay addresses ELIC F133W (Dickeya chrysanthemi, UniProt P0C7B7, F133W). In words: cell-based. Format: cell-based, Erwinia chrysanthemi. As to conditions: F133W. The protocol: as §1, §2, §3, §4
The target of a further assay is T2, ELIC A75D (Dickeya chrysanthemi, UniProt P0C7B7, A75D/INS163G).
T2 construct: expressed in transfected cells; host or cells: Xenopus laevis oocytes injected with cRNA from ELIC-pTLN
In words: Two-electrode voltage clamp, A75D mutant ELIC expressed in Xenopus laevis oocytes. Conditions: A75D. It counts as cell-based, Erwinia chrysanthemi.

For assay [1], the target named is T3, wild-type ELIC (Dickeya chrysanthemi, UniProt P0C7B7, INS163G).
T3 construct: expressed in transfected cells; host or cells: Xenopus laevis oocytes injected with cRNA from ELIC-pTLN
In words: Two-electrode voltage clamp, whole-cell currents of wild-type ELIC expressed in Xenopus laevis oocytes. Format: cell-based, Erwinia chrysanthemi. Conditions: WT ELIC, ACh inhibition of GABA-activated current.

The target of another assay is T4, ELIC I79Y (Dickeya chrysanthemi, UniProt P0C7B7, I79Y/INS163G).
T4 construct: expressed in transfected cells; host or cells: Xenopus laevis oocytes injected with cRNA from ELIC-pTLN
Kind of assay: Two-electrode voltage clamp, I79Y mutant ELIC expressed in Xenopus laevis oocytes. It counts as cell-based, Erwinia chrysanthemi. As to conditions: ACh 0.5 mM to 50 mM, followed by 5 mM cysteamine. The protocol:
as §1, §2, §3
as §4, with “The cysteamine-activated peak current with 25 mM ACh, was normalized to the cysteamine-activated peak current without ACh.” left out

Assay [2] deals with T5, ELIC L240A (L9′A) + A75D/F133W (Dickeya chrysanthemi, UniProt P0C7B7, A75D/F133W/L239A).
T5 construct: expressed in transfected cells; host or cells: Xenopus laevis oocytes injected with cRNA
Kind of assay: Two-electrode voltage clamp, L9′A + A75D/F133W triple mutant ELIC expressed in Xenopus laevis oocytes. As to conditions: L9′A + A75D/F133W; 30 s applications of ACh 0.5 to 50 mM, then 5 mM cysteamine. Format: cell-based, Erwinia chrysanthemi. The protocol: as §1, §2, §3
(§5) Individual EC50 and Hill coefficients were averaged for each oocyte to derive a mean ± standard deviation. For identifying a half maximal inhibitory concentration (IC50) and Hill coefficient of ACh, a concentration of cysteamine corresponding to its EC50 was used in the presence of increasing concentrations of ACh. […]

The next assay concerns the target T6, ELIC L240A (L9′A) (Dickeya chrysanthemi, UniProt P0C7B7, L239A).
T6 construct: expressed in transfected cells; host or cells: Xenopus laevis oocytes injected with cRNA from ELIC-pTLN
In words: Two-electrode voltage clamp, L240A (L9′A) mutant ELIC expressed in Xenopus laevis oocytes. Conditions: L9′A; 30 s applications of ACh 0.5 to 50 mM, then 5 mM cysteamine. Format: cell-based, Erwinia chrysanthemi. The protocol:
as §1, §2, §3, §5

Assay [3] addresses T3, wild-type ELIC. As to conditions: cited from earlier work.
Assay [4] relates to ELIC Y38W. In words: Two-electrode voltage clamp, Y38W mutant ELIC expressed in Xenopus laevis oocytes. It counts as cell-based, Erwinia chrysanthemi. Conditions: Y38W. Here is the method:
as §1, §2, §3, §4

The target of assay [5] is ELIC Y38W (Dickeya chrysanthemi, UniProt P0C7B7, Y38W). The description is as above. Format: cell-based, Erwinia chrysanthemi. Conditions: Y38W. Here is the method: as §1, §2, §3, §4
For assay [6], the target named is T3, wild-type ELIC. In words: Two-electrode voltage clamp, whole-cell currents of wild-type ELIC expressed in Xenopus laevis oocytes. Format: cell-based, Erwinia chrysanthemi. As to conditions: for Activation by amine (whole-cell response): 25 mM amine. Here is the method: as §1, §2, §3
as §4, with “[…] […]” for “For identifying a half maximal inhibitory concentration (IC50) and Hill coefficient of ACh, a concentration of cysteamine corresponding to its EC50 was used in the presence of increasing concentrations of ACh. Peak currents elicited from cysteamine with ACh (I) were normalized to the initial cysteamine peak current in the absence of ACh (Io).”

The mark [7] stands for this setting: ACh inhibition, cysteamine at its EC50.
[8] abbreviates: cysteamine at EC10, EC20, EC50, EC90.
Where [9] appears, read: ACh 0.5 mM to 50 mM, followed by 5 mM cysteamine.
Setting [10] is: WT, 25 mM ligand, 40 s pulse, cysteamine at its EC50.

With `[Cl-].[Na+]` [NaCl, sodium chloride], on ELIC A75D/F133W, the “Response when applied by themselves” value is “negligible response” and the “Potentiation of the cysteamine response on co-application” value (“Potentiation of the cysteamine response” below) was “small, but reproducible, degree of potentiation”.

For `CC(=O)OCC[N+](C)(C)C` [ACh, acetylcholine], the “Activation by amine (whole-cell response)” value (shortened to “Activation by amine”) on ELIC A75D/F133W and at wild-type ELIC [6] (WT) was “fail to activate” in each case. Moreover, the “Effect of co-applied ligand on cysteamine-activated current” value on ELIC A75D/F133W is on record as “same small degree of potentiation”; on wild-type ELIC [6] (setting [10]), “completely inhibited”. The “Potentiation of the cysteamine response” value at ELIC A75D/F133W is “potentiation”. The “Effect of high ACh concentrations on cysteamine peak current” value on ELIC A75D/F133W (ACh 50–100 mM, cysteamine at EC50) is “appeared to potentiate”. The “ACh inhibition of the cysteamine response” value on ELIC A75D/F133W (cysteamine fixed at EC50 (6.9 mM), ACh up to 100 mM) was “failed to inhibit; also recorded: no inhibition by ACh is observed”. The “Inhibition Hill coefficient” value on ELIC F133W (setting [7]) is “–1.1 ± 0.1”; on ELIC A75D (setting [7]) it was “–0.7 ± 0.1”; on wild-type ELIC [1], “–1.0 ± 0.3”; on ELIC Y38W [5] (setting [7]), “–1.4 ± 0.1”; on wild-type ELIC [6] (WT ELIC, ACh inhibition of cysteamine-activated current), “–1.1 ± 0.1”. Besides, the “Effect of 25 mM ACh on cysteamine-activated currents” value is listed as “increasing the concentration of cysteamine reduced the degree of inhibition” on ELIC F133W (setting [8]); “increasing the concentration of cysteamine reduced the degree of inhibition” at ELIC A75D (setting [8]); “nearly fully inhibited” at ELIC Y38W [5] (setting [8]); “nearly fully inhibited” on wild-type ELIC [6] (WT, cysteamine at EC10, EC20, EC50, EC90). The “Peak current on application of ligand alone” value was “None of the single mutants, nor wild-type ELIC, produced any peak current” at ELIC F133W (setting [9]); “None of the single mutants, nor wild-type ELIC, produced any peak current” on ELIC A75D (setting [9]); “None of the single mutants, nor wild-type ELIC, produced any peak current” at ELIC I79Y; “None of the single mutants, nor wild-type ELIC, produced any peak current” at ELIC Y38W [5] (setting [9]); “None of the single mutants, nor wild-type ELIC, produced any peak current” at wild-type ELIC [6] (WT, ACh 0.5 mM to 50 mM, followed by 5 mM cysteamine). The “Increase in ACh IC50 relative to wild-type” value on ELIC A75D came to 7 fold. The “Current on application of ligand alone” value (in assay [2]; on ELIC L240A (L9′A)) was “Neither mutant produced observable current; also recorded: No ACh-induced currents were observed” throughout. Besides, the “Action on ELIC” value at wild-type ELIC [3] is on record as “competitive antagonist”. In addition, in the assay on ELIC Y38W [4], the “Decrease in ACh IC50 relative to wild-type” value came to 3 fold.

`CN(C)C` [trimethylamine, Trimethylamine]: the “Activation by amine” value at ELIC A75D/F133W and on wild-type ELIC [6] (WT) was “activate” each time.

With `NCCCC(=O)O` [GABA, γ-aminobutyric acid], at ELIC A75D/F133W, the “Activation by amine” value is reported as “fails to elicit a response” and the “Effect of co-applied ligand on cysteamine-activated current” value is “same small degree of potentiation”. In addition, the “Action on ELIC” value on wild-type ELIC [3] was “agonist”. Moreover, the “Activation Hill coefficient” value at wild-type ELIC [6] (WT ELIC, agonist activation) is reported as 4.0 ± 0.7. Besides, the “Increase of cysteamine-activated current by co-applied ligand” value at wild-type ELIC [6] (setting [10]) is reported as “roughly 2 fold”. The “Macroscopic activation/deactivation kinetics of agonist-activated currents” value on wild-type ELIC [6] (WT, compared with cysteamine, agonists at their EC50) is listed as “slower macroscopic activation/deactivation kinetics”.

As for `OC[C@H]1O[C@@](CO)(O[C@H]2O[C@H](CO)[C@@H](O)[C@H](O)[C@H]2O)[C@@H](O)[C@@H]1O` [sucrose], on ELIC A75D/F133W, the “Response when applied by themselves” value was “negligible response” and the “Potentiation of the cysteamine response” value is given as “did not potentiate”.

Take `C[N+](C)(C)C` [tetramethylammonium, Tetramethylammonium]: the “Activation by amine” value on ELIC A75D/F133W and at wild-type ELIC [6] (WT) was “fail to activate” each time.

As for `CC(=O)OCCN(C)C` [DMAEA, 2-dimethylaminoethyl acetate], the “Effectiveness of activation compared with wild-type ELIC” value at ELIC A75D/F133W (25 mM) is given as “much less effective than observed with wild-type ELIC”. Further, the “Activation by amine” value on ELIC A75D/F133W and at wild-type ELIC [6] (WT) was “activate” each time. For the same compound, the “Action on ELIC” value on wild-type ELIC [3] is listed as “able to activate ELIC”.

Regarding `CCCN` [propylamine], the “Action on ELIC” value at wild-type ELIC [3] is “agonists”.
